Test results from patent US20250066319A1, “NOVEL ACID ADDITION SALT AND CRYSTALLINE FORM OF (2R, 3S)-2-(3-(4,5-DICHLORO-1H-BENZO[d]IMIDAZOL-1-YL)PROPYL)PIPERIDIN-3-OL” (Daewoong Pharmaceutical Co., Ltd., priority 2021, published 2025).
Structures can show the parent of a compound that is named as a salt.

Columns and labels:
[1] = Stability confirmation: severe test with respect to moisture, HPLC peak area of main component; format: physicochemical; details: 93% RH, open beaker, Monohydrochloride
Experimental: (§1) The acid addition salts prepared in some Examples and Comparative Examples were subjected to stability tests against high temperature and high humidity.
And, the severe tests with respect to moisture were performed by placing 50 mg of a sample in a 10 ml beaker, and measuring the content of impurities using HPLC (Azura, KNAUER, P6.1 1 L, DAD 6.1 L) after 1 week, 2 weeks, 4 weeks, and 8 weeks while storing the sample in a 93% RH desiccator in a state that the lid was not closed so that the sample has sufficient contact with the moisture in the air.
(§2) At a fixed time after the start of the test, one vial or beaker was taken out from each time point (the number of samples per test: n=1), and impurities were analyzed using HPLC under the conditions shown in Table 3 below. Then, the peak area was determined through integration for all the detected peaks, and then the relative peak area (%) for the main component was calculated and expressed as an average value.

[2] = target: T1, PRS protein (prolyl-tRNA synthetase, PRS portion of EPRS) (Homo sapiens, UniProt P07814); assay: PRS enzyme activity inhibition experiment; format: biochemical; details: [3H]proline, 37° C., 5 to 10 minutes
T1 construct: the portion corresponding to PRS in cDNA of EPRS was subcloned; made in house
T1 sequence (P07814 1007-1512 limits assumed): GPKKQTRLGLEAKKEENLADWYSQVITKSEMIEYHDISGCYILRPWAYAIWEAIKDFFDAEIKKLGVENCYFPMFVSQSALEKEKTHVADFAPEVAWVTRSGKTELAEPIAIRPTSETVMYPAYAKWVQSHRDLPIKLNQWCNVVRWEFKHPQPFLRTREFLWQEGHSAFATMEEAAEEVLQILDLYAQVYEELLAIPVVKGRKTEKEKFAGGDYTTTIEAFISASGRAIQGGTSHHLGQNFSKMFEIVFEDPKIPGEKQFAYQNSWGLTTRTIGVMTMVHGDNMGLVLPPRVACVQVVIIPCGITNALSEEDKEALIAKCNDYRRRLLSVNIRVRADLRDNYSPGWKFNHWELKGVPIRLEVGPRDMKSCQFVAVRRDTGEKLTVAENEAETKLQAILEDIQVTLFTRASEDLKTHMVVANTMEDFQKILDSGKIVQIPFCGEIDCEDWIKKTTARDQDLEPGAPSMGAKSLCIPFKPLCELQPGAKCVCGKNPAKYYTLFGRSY
Experimental: IC50 values of PRS enzyme activity inhibition of the (2R,3S)-2-(3-(4,5-dichloro-1H-benzo[d]imidazol-1-yl)propyl)piperidin-3-ol monohydrochloride prepared in Example 1-1 were measured as follows.
Specifically, the portion corresponding to PRS in cDNA of EPRS was subcloned, and the obtained high-purity PRS protein was purified and used in the experiment. The compounds (1 μM) prepared in Examples were added into the reaction buffer (20 mM KPO4 (pH 7.4), 6 mM MgAc, 5 mM ATP, […] tRNA, 0.5 mM DTT, 20 mCi[^3H]proline (1 mCi/mL)) and allowed to react at 37° C. for 5 to 10 minutes. The reaction was terminated with 3M paper that was in advance dried by addition of 5% TCA. The radioactivity was measured using a liquid scintillation counter. % Inhibition and IC50 values of the compounds were calculated and analyzed using Microsoft Excel or Sigma Plot 8.0.

[3] = Hygroscopicity test (weight change in desiccators of constant relative humidity); format: physicochemical; parameters: scale not given here; details: room temperature, one day
Experimental: The hygroscopicity tests of the acid addition salts prepared in Examples 1-1 to 1-6 and Comparative Example 1 were performed.
After one day, the change in weight was measured, then transferred to another desiccator and the previous experiment was repeated. At this time, for sorption analysis, the weight change was measured by moving the sample from a low-humidity desiccator to a high-humidity desiccator, and for desorption analysis, the weight change was measured by transferring the sample from a high-humidity desiccator with high humidity to a low-humidity desiccator.

[4] = Stability confirmation: severe test with respect to temperature, HPLC peak area of main component; format: physicochemical; details: 60° C., relative humidity less than 10%, Monohydrochloride
Experimental: as §1
Specifically, the severe tests with respect to temperature were performed by placing 50 mg of a sample in a vial, closing the lid, and then measuring the content of impurities using HPLC (Azura, KNAUER, P6.1 1 L, DAD 6.1 L) after 1 week, 2 weeks, 4 weeks, and 8 weeks while storing in a chamber at 60° C. and a relative humidity of less than 10%.
as §2

[5] = Differential scanning calorimetry analysis after severe test with respect to temperature; format: physicochemical; details: high temperature condition (60° C.), 1 week and 8 weeks; Monohydrochloride
Experimental: For (2R,3S)-2-(3-(4,5-dichloro-1H-benzo[d]imidazol-1-yl)propyl)piperidin-3-ol monohydrochloride prepared in Example 1-1 and (2R,3S)-2-(3-(4,5-dichloro-1H-benzo[d]imidazol-1-yl)propyl)piperidin-3-ol dihydrochloride prepared in Comparative Example 1, each beaker was taken out 1 week and 8 weeks after the start of the test from the desiccator where the severe tests with respect to temperature were in progress, and the differential scanning calorimetry analysis was performed. At this time, the differential scanning calorimetry analysis was performed using a differential scanning calorimeter (DSC Q20, manufactured by TA Instruments) in a tightly closed pan under nitrogen purge at a scan rate of 10° C./min while raising the temperature from 20° C. to 300° C.

**Q.** With `O[C@H]1CCCN[C@@H]1CCCn1cnc2c(Cl)c(Cl)ccc21` [Example 1-1, (2R,3S)-2-(3-(4,5-dichloro-1H-benzo[d]imidazol-1-yl)propyl)piperidin-3-ol Monohydrochloride] as the molecule, how does the “relative peak area for the main component (HPLC)” value (shortened to “relative peak area”) ([1]; after 1 week) read?
**A.** 99.8%

**Q.** And the “relative peak area” value ([1]; after 2 weeks)?
**A.** 99.9%

**Q.** What about the “relative peak area” value ([1]; after 4 weeks) of the same molecule?
**A.** 99.8%

**Q.** What about the “relative peak area” value ([1]; after 8 weeks) of the same molecule?
**A.** 99.9%

**Q.** What about the “relative peak area” value ([1]; initial) of the same molecule?
**A.** 99.9%

**Q.** And the IC50 [2]?
**A.** 74 nM

**Q.** And the “weight change, desorption” value ([3]; 11% RH, Monohydrochloride)?
**A.** 100.8

**Q.** What about the “weight change, desorption” value ([3]; 33% RH, Monohydrochloride) of the same molecule?
**A.** 101.2

**Q.** What about the “weight change, desorption” value ([3]; 54% RH, Monohydrochloride) of the same molecule?
**A.** 100.8

**Q.** What about the “weight change, desorption” value ([3]; 75% RH, Monohydrochloride) of the same molecule?
**A.** 101.7

**Q.** And the “weight change, sorption” value ([3]; 11% RH)?
**A.** 100

**Q.** And the “weight change, sorption” value ([3]; 33% RH, Monohydrochloride)?
**A.** 100

**Q.** And the “weight change, sorption” value ([3]; 54% RH, Monohydrochloride)?
**A.** 101

**Q.** What about the “weight change, sorption” value ([3]; 75% RH, Monohydrochloride) of the same molecule?
**A.** 101.6

**Q.** And the “weight change, sorption” value ([3]; 93% RH, Monohydrochloride)?
**A.** 101.6

**Q.** And the “relative peak area” value ([4]; after 1 week)?
**A.** 99.9%

**Q.** And the “relative peak area” value ([4]; after 2 weeks)?
**A.** 99.8%

**Q.** And the “relative peak area” value ([4]; after 4 weeks)?
**A.** 99.9%

**Q.** And the “relative peak area” value ([4]; after 8 weeks)?
**A.** 99.8%

**Q.** What about the “relative peak area” value ([4]; initial) of the same molecule?
**A.** 99.9%

**Q.** And the “change in differential scanning calorimetry analysis pattern” value [5]?
**A.** does not show any change in differential scanning calorimetry analysis pattern
